The assay deals with E. coli WT ribosome GFP fluorescence, mixed culture, 24 h. Nature of the assay: growth inhibition of wild-type GFP E. coli, dose response, h38 mutant RFP, cherry-pick (AID 977622).
[1] abbreviates: E. coli mixed culture, 24 h, measured here: total growth OD600.

Inconclusive results are not listed. Calls of active or inactive are those of the source.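 Rule for the calls: active = Green signal of the normal strain falls at least twice as much as red signal of the resistant mutant, with overall culture growth loss under a set limit; inconclusive = no clear call, values can overlap the other calls; inactive = the rest.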

One may read the AC50 as the concentration giving half of the maximal activity seen.

Take `CCN(CC)S(=O)(=O)c1cccc(NC(=O)CNc2cccc(S(=O)(=O)N3CCCC3)c2)c1`: the AC50 was > 100 µM (inactive). In the case of `O=C1c2ccccc2C(=O)N1CCc1c[nH]c2ccccc12`, the AC50 was > 100 µM (inactive). The AC50 under setting [1] is > 100 µM. Consider `Cc1cc(C)c(OCCNC(=O)c2ccccc2Sc2ccccc2C#N)c(C)c1`, for which the AC50 is > 100 µM (inactive).

Turning to `COc1ccc(NC(=O)CSc2n[nH]c(-c3ccncc3)n2)c([N+](=O)[O-])c1`, the AC50 is > 100 µM (inactive). Besides, the half-maximal activity concentration (AC50) under setting [1] was > 100 µM.

For the compound `O=[N+]([O-])c1ccc2nc(-c3ccccc3[N+](=O)[O-])[nH]c2c1`, the AC50 was > 100 µM (inactive). Also, the half-maximal activity concentration (AC50) under setting [1] was > 100 µM. Turning to `COCc1c(C#N)c(NCCc2ccc(F)cc2)nc(C)c1[N+](=O)[O-]`, the AC50 was > 100 µM (inactive). `CC(=O)OC1N=C(c2ccccc2Cl)c2cc(Br)ccc2NC1=O` (stereo unspecified): under setting [1], the AC50 is > 100 µM. For `CN(Cc1ccc([N+](=O)[O-])cc1)c1ccccc1`, the AC50 under setting [1] was > 100 µM. `Cc1ccccc1-n1ncc2c1CC(C)(C)CC2NC(=O)CCN1Cc2ccccc2C1=O` (stereo unspecified): the AC50 was > 100 µM (inactive). Also, the AC50 under setting [1] was > 100 µM.

`COc1ccc(OC2C(=O)N(Cc3ccc4c(c3)OCO4)C2c2cccs2)cc1` (stereo unspecified): the AC50 is > 100 µM (inactive).

For `NS(=O)(=O)c1cc(C(=O)OCC(=O)Nc2ccccc2[N+](=O)[O-])ccc1Cl`, under setting [1], the AC50 was > 100 µM.

With `c1cc2cc(-c3c(-c4ccc5c(c4)OCO5)noc3-c3ccsc3)ccc2[nH]1`, the AC50 was > 100 µM (inactive). Turning to `CCOC(=O)c1sc(Nc2cccc(Cl)c2)nc1C`, the half-maximal activity concentration (AC50) under setting [1] was > 100 µM. On to `CC(=O)Oc1c(Cl)cc(N(C(C)=O)S(=O)(=O)c2ccccc2)c2ccccc12`, for which the AC50 was > 100 µM (inactive). Under setting [1], this compound returned an AC50 of 47.2 µM.

For `COc1ccc(NC(=O)Nc2cccc3c2O[C@@H](CN(C)S(=O)(=O)c2ccc(Cl)cc2)[C@@H](C)CN([C@@H](C)CO)C3=O)cc1`, the AC50 was > 100 µM (inactive). The AC50 under setting [1] was 47.3 µM. As for `CCN(C(=O)c1ccnc(C(C)(C)C)c1)c1ccccc1`, the AC50 is > 100 µM (inactive). As for `O=C(CCNC(=O)c1ccco1)Nc1cccc(Br)c1`, the AC50 was > 100 µM (inactive). Besides, the AC50 under setting [1] was > 100 µM. Regarding `COc1ccc(CC(=O)NCc2csc(-c3cccs3)n2)cc1OC`, the AC50 under setting [1] was > 100 µM. For the compound `Cc1cc(C)cc(NC(=O)c2cccc(NC(=O)C3C4CC5OC(=O)C3C5C4)c2)c1` (stereo unspecified), the AC50 is > 100 µM (inactive).

`CCOc1ccccc1N1CC(C(=O)Nc2cccc(S(=O)(=O)N3CCCCC3)c2)CC1=O` (stereo unspecified): the AC50 under setting [1] is > 100 µM. Take `O=S(=O)(NCc1ccc2c(c1)OCO2)c1ccc2c(c1)oc1ccccc12`: the AC50 is > 100 µM (inactive). Besides, the half-maximal activity concentration (AC50) under setting [1] came to 40.8 µM. For `Cc1ccc(NC(=O)c2ccc([N+](=O)[O-])o2)c(C)c1`, the AC50 was > 100 µM (inactive). Still for that read-out and setting: in the case of `O=C(C[C@H]1CC[C@@H]2[C@H](COC[C@@H](O)CN2C(=O)Nc2cc(Cl)cc(Cl)c2)O1)N1CCOCC1` it was > 100 µM (inactive). Turning to `CC1CN(CC(=O)Nc2nc3ccccc3s2)CC(C)O1` (stereo unspecified), the AC50 was > 100 µM (inactive).

In the case of `COc1cc2c(c(OC)c1OC)C(c1ccc3c(c1)OCO3)CC(=O)O2` (stereo unspecified), the AC50 under setting [1] was > 100 µM. In the case of `COc1ccc(NC(=O)CN(c2ccccc2OC)S(=O)(=O)c2cccs2)cc1Cl`, the AC50 under setting [1] was > 100 µM. In the case of `O=C(O)c1ccc(-c2nc(-c3ccccc3)cs2)cc1`, the AC50 is > 100 µM (inactive). As for `O=C(CC(c1ccccc1)c1cc(Br)ccc1O)N1CCCC1` (stereo unspecified), the AC50 is > 100 µM (inactive).

With `CCC(=O)Nc1nc2ccc(NC(=O)c3cc(OC)c(OC)c(OC)c3)cc2s1`, the AC50 was > 100 µM (inactive).

Consider `COc1ccc(C(=O)NCCc2ccccn2)cc1S(=O)(=O)Nc1ccc(Br)cc1`, for which the AC50 was > 100 µM (inactive). For `CO[C@@H]1CN(C)C(=O)c2cc(NC(=O)C3CCCC3)ccc2OC[C@@H](C)N(C(=O)Nc2ccc(C(F)(F)F)cc2)C[C@H]1C`, the AC50 is > 100 µM (inactive). Under setting [1], this compound had an AC50 of 49.5 µM. Regarding `Nc1ccccc1C#CC(=O)c1ccccc1`, the AC50 was > 100 µM (inactive). Turning to `O=C1C(c2ccccc2)c2ccccc2N1Cc1ccccc1` (stereo unspecified), the AC50 was > 100 µM (inactive). For the compound `NS(=O)(=O)c1cccc(NC(=O)COc2ncnc3c2cnn3-c2ccccc2)c1`, the AC50 is > 100 µM (inactive). In the case of `CC(Nc1ncnc2ccccc12)c1ccccc1` (stereo unspecified), the AC50 was > 100 µM (inactive). Moreover, the AC50 under setting [1] was > 100 µM. Under setting [1], `CCCCCCCNC(=O)c1ccc(N2CCC3(CC2)OCCO3)c([N+](=O)[O-])c1` yielded an AC50 of 40.4 µM. Turning to `Cc1nn2c(NCc3ccccn3)cc(C(C)C)nc2c1-c1ccccc1`, the AC50 was > 100 µM (inactive). As for `COc1ccc(OC)c(N(CC(=O)Nc2ccccc2F)S(=O)(=O)c2ccccc2)c1`, the AC50 is > 100 µM (inactive). Consider `COc1ccc(CNS(=O)(=O)c2ccc3c(c2)NC(=O)C(C)S3)cc1` (stereo unspecified), for which the AC50 is > 100 µM (inactive). In turn, `COC(=O)c1ccc(CCc2cc(O)c(Br)cc2O)cc1` returned an AC50 under setting [1] of 46.5 µM. As to `Cc1nnc2sc(SCC(=O)Nc3ccc(Br)cc3)nn2c1=O`, the AC50 was > 100 µM (inactive). The AC50 under setting [1] was > 100 µM. `COC(=O)C[C@H]1C[C@@H]2c3cc(NC(=O)Nc4ccc(C(F)(F)F)cc4)ccc3O[C@@H]2[C@H](CO)O1`: the AC50 is > 100 µM (inactive). The AC50 under setting [1] is > 100 µM. Take `C[C@@H]1CN([C@@H](C)CO)C(=O)c2cc(NC(=O)C3CC3)ccc2O[C@H]1CN(C)C(=O)Nc1ccc(C(F)(F)F)cc1`: the AC50 is > 100 µM (inactive). Turning to `CCCN(CC1CC1)C(=O)CSc1ncnc2sccc12`, the AC50 is > 100 µM (inactive). As to `CC(C)Oc1ccc(C(CC(=O)O)NC(=O)C(Sc2ccccc2)c2ccccc2)cc1` (stereo unspecified), the AC50 is > 100 µM (inactive). In addition, the AC50 under setting [1] is > 100 µM. `COc1cccc(S(=O)(=O)N2CCCCN3[C@H](C2)[C@H](c2ccc(C#CC(C)C)cc2)[C@@H]3CO)c1`: the AC50 was > 100 µM (inactive). On to `CCN(CC)S(=O)(=O)c1ccc(O)c(C(=O)OCC(=O)NC23CC4CC(CC(C4)C2)C3)c1`, for which the half-maximal activity concentration (AC50) under setting [1] is > 100 µM. `Cn1cnc(CCNC(=O)C[C@H]2CC[C@@H]3[C@H](COC[C@H](O)CN3C(=O)Nc3ccc(Cl)cc3)O2)c1`: the AC50 was > 100 µM (inactive). As to `COc1ccccc1CNC(=O)CN1C(=O)NC(c2ccccc2)(c2ccccc2)C1=O`, the AC50 is > 100 µM (inactive). Take `Cc1cc(-c2ccc(C)c(S(=O)(=O)NC(C)Cc3ccco3)c2)on1` (stereo unspecified): the AC50 was > 100 µM (inactive). The same compound had an AC50 under setting [1] of 46.2 µM.

Regarding `O=[N+]([O-])c1ccc(N2CCOCC2)c2c1no[n+]2[O-]`, the AC50 was > 100 µM (inactive). For the same compound, under setting [1], the AC50 is > 100 µM.

Consider `O=C(NCc1ccc2c(c1)OCO2)C1CCCN1S(=O)(=O)c1ccc(Cl)cc1` (stereo unspecified), for which the AC50 is > 100 µM (inactive).

As for `CCCN(CC(=O)Nc1ccccc1C)C(=O)c1cccc(S(=O)(=O)N2CCc3ccccc3C2)c1`, the AC50 is > 100 µM (inactive). Consider `CS(=O)(=O)N1CC2CCCN2c2ccc(C(F)(F)F)cc21` (stereo unspecified), for which, under setting [1], the AC50 was > 100 µM. `COc1ccccc1CN1Cc2ccccc2Oc2ccccc2S1(=O)=O`: the AC50 is > 100 µM (inactive). With `Nc1ccc(C(=O)OCCc2ccccc2)cc1`, the AC50 is > 100 µM (inactive). As to `OC(COc1ccc(Cl)cc1)CN1CCN(c2ccccn2)CC1` (stereo unspecified), under setting [1], the AC50 is > 100 µM.

Regarding `COc1ccc(CNC(=O)c2sc3nc4c(c(C(F)(F)F)c3c2N)CCC4)cc1OC`, under setting [1], the AC50 was > 100 µM. In the case of `CSc1c(-c2ccccn2)c(N)nn1C(=O)C1CC1`, the AC50 is > 100 µM (inactive). `S=c1nc(-c2cc(Cl)cc(Cl)c2)[nH][nH]1`: the AC50 was > 100 µM (inactive). As to `Brc1ccc(-n2cnc(-c3ccccc3)c2)cc1`, the AC50 is > 100 µM (inactive).

In the case of `O=C(Nc1cccc(Cl)c1)N1C[C@@H]2[C@H](c3ccccc31)[C@H](CO)N2Cc1ccncc1`, under setting [1], the concentration at half-maximal activity (AC50) is > 100 µM. On the same count and under the same terms, to `C[C@H]1CN([C@@H](C)CO)C(=O)CCCn2nncc2CO[C@@H]1CN(C)Cc1ccccc1C(F)(F)F` belongs > 100 µM. On to `COc1ccccc1NS(=O)(=O)c1cc(C(=O)Nc2ccc(S(=O)(=O)Nc3onc(C)c3C)cc2)ccc1C`, for which the AC50 was > 100 µM (inactive). Consider `COc1ccc(OC2C(=O)N(Cc3ccc4c(c3)OCO4)C2c2sccc2C)cc1` (stereo unspecified), for which the AC50 was > 100 µM (inactive).

Take `COc1ccc([C@H]2C[C@H](O)C[C@@H](CCn3cc(-c4ccccc4)nn3)O2)cc1`: the AC50 under setting [1] was > 100 µM. Regarding `Cc1ccc(C)c(N(CC(=O)NC2CCCC2)C(=O)c2oc(C(C)(C)C)cc2C)c1`, under setting [1], the AC50 is > 100 µM. For the compound `C=CCNc1ccc2c(c1)OC[C@H](CC(C)C)NS2(=O)=O`, the AC50 under setting [1] is > 100 µM. Regarding `O=C(CC(=O)c1cccs1)c1ccncc1`, the AC50 is > 100 µM (inactive). In addition, the AC50 under setting [1] was > 100 µM. In the case of `O=C(Cc1cccc(NC(=O)C2CCCN(C(=O)CCc3ccccc3)C2)c1)Nc1cccc(C(=O)N2CCCC2)c1` (stereo unspecified), the AC50 was > 100 µM (inactive).

Turning to `Cc1cc(C(=O)Nc2cccc3c2O[C@H](CN(C)S(=O)(=O)c2ccc(Cl)cc2)[C@H](C)CN([C@H](C)CO)C3=O)n(C)n1`, the AC50 was > 100 µM (inactive). This compound came in with an AC50 under setting [1] of 27.8 µM. Take `COc1ccc(C#Cc2ccc([C@H]3[C@@H](CO)N4CCCCN(C(=O)Nc5cccc(F)c5)C[C@H]34)cc2)cc1`: the AC50 under setting [1] is > 100 µM. In the case of `Cc1cccc(Oc2ccc(NC(=O)c3ccccc3C(=O)O)cc2)c1`, the AC50 under setting [1] was > 100 µM. Regarding `O=C(CN(CCO)c1ccccc1)Nc1cccc(S(=O)(=O)N2CCCC2)c1`, the AC50 was > 100 µM (inactive). Turning to `O=C1c2cccc3cccc(c23)C(=O)N1CCCn1ccnc1`, the AC50 is > 100 µM (inactive). This compound came in with an AC50 under setting [1] of 51.6 µM. In the case of `COC(=O)c1c(C)oc(C)c1S(=O)(=O)NC(c1ccccc1)c1ccccc1`, the AC50 was > 100 µM (inactive). The compound further yielded an AC50 under setting [1] of 35.7 µM. Take `O=C(CSc1nnc(COc2cccc3cccnc23)o1)c1ccc(F)cc1`: the AC50 under setting [1] is > 100 µM.

Values taken from PubChem BioAssay AID977622 (Broad Institute, 2014).
